# Earlier results in patent US20260297123A1, “METHODS FOR THE SYNTHESIS OF NUCLEOSIDE ANALOGUES AND NUCLEOSIDES ANALOGUES DERIVED THEREFROM” (SIMON FRASER UNIVERSITY, priority 2023, published 2026).
# Conditions: DMSO (values in parentheses); values <0 and >35 extrapolated
row,Structure (SMILES),"pKa, (DMSO)"
1,O=C(NO)c1ccccc1,(13.7)
2,CN(O)C(=O)c1ccccc1,(16.5)
3,CN(C)C(=N)N(C)C,(13.5)
4,NNC(=O)c1ccccc1,(18.9)
5,Oc1ccccn1,(17.0)
6,CCOC(=O)C[N+](C)(C)C,(20.0)
7,CCOC(=O)CC(C)=O,(14.2)
8,N#CCC(=O)N1CCCC1,(17.2)
9,CS(=O)(=O)C(F)(F)F,(18.8)
10,Oc1ccc2ccccc2c1 [2-napthol],(17.1)
11,OC(C(F)(F)F)C(F)(F)F [(CF3)2CHOH],(17.9)
12,CC(=O)NC(C)=O [Ac2NH],(17.9)
13,CCCCS [BuSH],(17.0)
14,NS(=O)(=O)C(F)(F)F [CF3SO2NH2],(9.7)
15,O=S(=O)(O)C(F)(F)F [CF3SO3H],(0.3)
16,Br [HBt],(0.9)
17,F [HF],(15)
18,N#CN [NCNH2],(16.9)
19,CN(C)c1ccccc1 [PhN^+(Me)2H],(2.50)
20,"CC[N+](=O)[O-] [RNO2, R = CH2Me]",(16.7)
21,"O=[N+]([O-])Cc1ccccc1 [RNO2, R = CH2Ph]",(12.2)
22,"C[N+](=O)[O-] [RNO2, R = CH3]",(17.2)
23,"CC(C)[N+](=O)[O-] [RNO2, R = CHMe2]",(16.9)
24,"NC(=O)C(F)(F)F [drawing 41, R = CF3]",(17.2)
25,"CC(=O)Cc1ccccc1 [drawing 77, X = Ph]",(19.8)
26,"N#CCC(=O)c1ccccc1 [drawing 82, X = CN]",(10.2)
27,"O=C(Cc1ccccc1)c1ccccc1 [drawing 82, X = Ph]",(17.7)
28,"O=C(C[Se]c1ccccc1)c1ccccc1 [drawing 82, X = SePh]",(18.6)
29,O=[N+]([O-])c1ccc(O)cc1 [p-O2NC6H4OH],(10.8)
30,COc1ccc(O)cc1 [p-OMeC6H4OH],(19.1)

# The remaining lines, values ahead:
row,"pKa, (DMSO)",Structure (SMILES)
1,(17.5),CS(N)(=O)=O [MeSO2NH2]
2,(12.9),CS(=O)(=O)Nc1ccccc1 [MeSO2NHPh]
3,(7.0),N#CC[P+](c1ccccc1)(c1ccccc1)c1ccccc1 [Ph3P^+CH2CN]
4,(6.2),O=C(C[P+](c1ccccc1)(c1ccccc1)c1ccccc1)c1ccccc1 [Ph3P^+CH2COPh]
5,(11.8),"O=[N+]([O-])CSc1ccccc1 [PhSCH2X, X = NO2]"
6,(11.0),"O=S(=O)(CSc1ccccc1)C(F)(F)F [PhSCH2X, X = SO2CF3]"
7,(16.1),NS(=O)(=O)c1ccccc1 [PhSO2NH2]
8,(17.2),NNS(=O)(=O)c1ccccc1 [PhSO2NHNH2]
9,(16.2),"O=[N+]([O-])CCc1ccccc1 [RNO2, R = CH2Bn]"
10,(13.3),"CC(=O)CC(C)=O [drawing 77, X = COCH3]"
11,(15.1),"CC(=O)CS(=O)(=O)c1ccccc1 [drawing 77, X = SO2Ph]"
12,(18.7),"CC(=O)CSc1ccccc1 [drawing 77, X = SPh]"
13,(12.7),"CC(=O)CC(=O)c1ccccc1 [drawing 82, X = COCH3]"
14,(13.3),"O=C(CC(=O)c1ccccc1)c1ccccc1 [drawing 82, X = COPh]"
15,(7.7),"O=C(C[N+](=O)[O-])c1ccccc1 [drawing 82, X = NO2]"
16,(14.6),"C[N+](C)(C)CC(=O)c1ccccc1 [drawing 82, X = N^+Me3]"
17,(11.4),"O=C(CS(=O)(=O)c1ccccc1)c1ccccc1 [drawing 82, X = SO2Ph]"
18,(16.9),"O=C(CSc1ccccc1)c1ccccc1 [drawing 82, X = SPh]"
19,(19.1),"N#CC1SCCCS1 [drawing 97, X = CN]"
20,(12.0),"N#CCS(=O)(=O)c1ccccc1 [drawing 107, X = CN]"
21,(12.5),"CC(=O)CS(=O)(=O)c1ccccc1 [drawing 107, X = COMe]"
22,(7.1),"O=[N+]([O-])CS(=O)(=O)c1ccccc1 [drawing 107, X = NO2]"
23,(19.4),"C[N+](C)(C)CS(=O)(=O)c1ccccc1 [drawing 107, X = N^+Me3]"

# Same assay, conditions: DMSO; first value listed
row,Structure (SMILES),"pKa, (DMSO) (first of several listed)"
1,C[S+](Cc1ccccc1)c1ccccc1 (centres unmarked),16.2
2,C1CN2CCN1CC2 [DABCO],2.97

# Same assay, conditions: DMSO; second value listed
row,Structure (SMILES),"pKa, (DMSO) (second of several listed)"
1,C[S+](Cc1ccccc1)c1ccccc1 (centres unmarked),16.3
2,C1CN2CCN1CC2 [DABCO],8.93
3,CN(C)c1cccc2cccc(N(C)C)c12 [Proton Spong ?],7.50

# Same assay, conditions: H2O; NH
row,"pKa, H2O (NH)",Structure (SMILES)
1,8.88 (NH),O=C(NO)c1ccccc1

# Same assay, conditions: H2O; first value listed
row,"pKa, H2O (first of several listed)",Structure (SMILES)
1,6.90,NCCN
2,1.9,O=S(O)O [H2SO3]
3,3.6,"O=C(O)O [drawing 16, X = HO]"

row,Structure (SMILES),"pKa, H2O (first of several listed)"
1,C1CN2CCN1CC2 [DABCO],2.97
2,[O]=[Cr](=[O])([OH])[OH] [H2CrO4],−0.98

# Same assay, conditions: H2O; second value listed
row,Structure (SMILES),"pKa, H2O (second of several listed)"
1,NCCN,9.95
2,C1CN2CCN1CC2 [DABCO],8.82
3,[O]=[Cr](=[O])([OH])[OH] [H2CrO4],6.50
4,O=S(O)O [H2SO3],7.21
5,CN(C)c1cccc2cccc(N(C)C)c12 [Proton Spong ?],12.0

# Same assay, conditions: H2O; values <0 and >14 extrapolated
row,Structure (SMILES),"pKa, H2O"
1,ON=C(c1ccccc1)c1ccccc1,11.3
2,O=C1CCCN1,12
3,O=C1NC(=O)c2ccccc21,6.30
4,C1=Cc2ccccc2C1,20
5,CCOC(=O)CC(C)=O,11
6,CCC(=O)CC,19-20
7,Nc1ccc2ccccc2c1 [2-naphthal-N^+H3],4.16
8,OB(O)O [B(OH)3],9.23
9,CCCCS [BuSH],10-11
10,OCC(F)(F)F [CF3CH2OH],12.5
11,CC(=O)OO [CH3CO3H],8.2
12,CN(C)c1ccncc1 [DMAP],9.2
13,CCP(CC)CC [Et3P^+H],9.1
14,F [HF],3.17
15,O=NO [HNO2],3.29
16,O=[N+]([O-])O [HNO3],−1.3
17,OCl [HOCl],7.5
18,OO [HOOH],11.6
19,N#CS [HSCN],4.00

row,Structure (SMILES),"pKa, H2O"
1,CO [MeOH],15.54
2,COO [MeOOH],11.5
3,c1ccc(Nc2ccccc2)cc1 [Ph2N^+H2],0.78
4,CN(C)c1ccccc1 [PhN^+(Me)2H],5.20
5,"O=C(O)C(Cl)(Cl)Cl [drawing 16, X = CCl3]",0.65
6,"O=C(O)C(F)(F)F [drawing 16, X = CF3]",−0.25
7,"O=C(O)C[N+](=O)[O-] [drawing 16, X = CH2NO2]",1.68
8,"O=C(O)c1cccc(Cl)c1 [drawing 16, X = m-ClC6H4]",3.83
9,"O=C(O)c1cccc([N+](=O)[O-])c1 [drawing 16, X = m-O2NC6H4]",2.45
10,"C[N+](C)(C)c1ccccc1C(=O)O [drawing 16, X = o-(CH3)3N^+C6H4]",1.37
11,"C[N+](C)(C)c1ccc(C(=O)O)cc1 [drawing 16, X = p-(CH3)3N^+C6H4]",3.43
12,"O=C(O)c1ccc([N+](=O)[O-])cc1 [drawing 16, X = p-O2NC6H4]",3.44
13,"C=CC(=O)O [drawing 17, R = H]",4.25
14,"CC(=O)CC(C)=O [drawing 77, X = COCH3]",9
15,CC(C)O [i-PrOH],16.5
16,O=[N+]([O-])c1cccc(O)c1 [m-C2NC6H4OH],8.35
17,O=[N+]([O-])c1ccc(O)cc1 [p-O2NC6H4OH],7.14
18,COc1ccc(O)cc1 [p-OMeC6H4OH],10.20
19,CC(C)(C)O [t-BuOH],17

# Same assay, conditions: dmso
row,Structure (SMILES),"pKa, (DMSO)"
1,CCC(=O)Nc1ccccc1,(21.6)
2,CC(=O)C(C)(C)C,(27.7)
3,C1CCC2=NCCCN2CC1 [DBU],(12) (estimate)
